Holding throughout (format): cell-based
Assay [1] has as its system T lymphocytes isolated from RyR163C mice. The experiment in a line: Fura-2 intracellular calcium imaging in T lymphocytes from RyR163C mice. Conditions: for Δ1/Δ2 ratio: preincubated, fura-2. The source says: (§1) FIGS. 3A and 3B show intracellular calcium measurements in T lymphocytes. […] Shown are average traces recorded from at least 20 cells in one representative experiment.
(A change in cytosolic calcium serves as a functional read-out for many receptors and channels.)

Assay [2] has as its system T lymphocytes isolated from 5×FAD mice. Kind of assay: Fura-2 intracellular calcium imaging in T lymphocytes from 5×FAD mice. The following applies: SERCA blocker applied in about 0 mM extracellular calcium; 5×FAD T lymphocytes.
Source text: as §1

Assay [3] concerns T lymphocytes isolated from control WT mice. Kind of assay: Fura-2 intracellular calcium imaging in T lymphocytes from wild-type mice. The following applies: SERCA blocker applied in about 0 mM extracellular calcium; WT cells, compared to 5×FAD and RyR163C.
Source text: as §1

As to ryanodine, in assay [1] (ryanodine 800 μM), the “basal intracellular calcium levels” value is on record as “reducing”, the responses to thapsigargin entry is “increasing” and the Δ1/Δ2 ratio entry is listed as “reduced”.
As to `C/C=C(/C)C(=O)O[C@H]1C(C)=C2[C@H]([C@@H]1OC(=O)CCCCCCC)[C@@](C)(OC(C)=O)C[C@H](OC(=O)CCC)[C@@]1(O)[C@H]2OC(=O)[C@@]1(C)O` [thapsigargin], the results for the “intracellular calcium transients evoked (Δ2=F3−F2)” value in assay [1] (SERCA blocker applied in about 0 mM extracellular calcium), in assay [2] and in assay [3] were “barely detectable”, “barely detectable” and “larger”, respectively.
With `O=C1CN(/N=C/c2ccc(-c3ccc([N+](=O)[O-])cc3)o2)C(O)=N1` [dantrolene], in assay [1] (dantrolene 50 μM), the “basal intracellular calcium levels” value is reported as “reducing”, the responses to thapsigargin entry is recorded as “increasing” and the Δ1/Δ2 ratio result is recorded as “reduced”.

Values taken from patent publication US20210311075A1, “METHODS FOR DETECTING DISORDERS RELATED TO CALCIUM DISCHARGE FROM INTRACELLULAR STORES” (The Regents of the University of California, priority 2017, published 2021).
